Experimental findings from US11572366B2, “Heterocyclic compounds as immunomodulators” (Incyte Corporation, priority 2015, dated 2023) are described below.

This test has as its target PD-1/PD-L1 protein/protein interaction (Homo sapiens (Human), UniProt Q9NZQ7). Briefly: PD-1/PD-L1 Homogeneous Time-Resolved Fluorescence (HTRF) binding assay. Particulars: recombinant human PD-L1 (19-238) His-tag 10 nM, human PD-1 (25-167) Fc tag 3 nM, 25° C., PBS pH 7.4. The procedure: Example A. PD-1/PD-L Homogeneous Time-Resolved Fluorescence (HTRF) Binding Assay
The assays were conducted in a standard black 384-well polystyrene plate with a final volume of 20 μL. Inhibitors were first serially diluted in DMSO and then added to the plate wells before the addition of other reaction components. The final concentration of DMSO in the assay was 1%. The assays were carried out at 25° C. in the PBS buffer (pH 7.4) with 0.05% Tween-20 and 0.1% BSA. Recombinant human PD-L1 protein (19-238) with a His-tag at the C-terminus was purchased from AcroBiosystems (PD1-H5229). Recombinant human PD-1 protein (25-167) with Fc tag at the C-terminus was also purchased from AcroBiosystems (PD1-H5257). PD-L1 and PD-1 proteins were diluted in the assay buffer and 10 μL was added to the plate well. Plates were centrifuged and proteins were preincubated with inhibitors for 40 minutes. The incubation was followed by the addition of 10 μL of HTRF detection buffer supplemented with Europium cryptate-labeled anti-human IgG (PerkinElmer-AD0212) specific for Fe and anti-His antibody conjugated to SureLight®-Allophycocyanin (APC, PerkinElmer-AD0059H). After centrifugation, the plate was incubated at 25° C. for 60 min. before reading on a PHERAstar FS plate reader (665 nm/620 nm ratio). Final concentrations in the assay were—3 nM PD1, 10 nM PD-L1, 1 nM europium anti-human IgG and 20 nM anti-His-Allophycocyanin.IC50 determination was performed by fitting the curve of percent control activity versus the log of the inhibitor concentration using the GraphPad Prism 5.0 software.
Background: Time-resolved FRET reads energy transfer from a long-lived donor to a nearby acceptor.

PD-1/PD-L1 protein/protein interaction, sequence (Q9NZQ7 19-238): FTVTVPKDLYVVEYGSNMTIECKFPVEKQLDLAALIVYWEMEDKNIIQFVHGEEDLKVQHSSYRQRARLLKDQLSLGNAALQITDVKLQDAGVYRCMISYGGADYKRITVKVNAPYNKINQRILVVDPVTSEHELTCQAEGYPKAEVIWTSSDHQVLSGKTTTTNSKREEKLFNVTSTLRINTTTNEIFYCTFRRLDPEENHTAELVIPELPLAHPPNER

Regarding `Cc1c(-c2ccccc2)cccc1-c1cc2ccc(CNCCO)nc2o1` [Example 1, 2-({[2-(2-methylbiphenyl-3-yl)furo[2,3-b]pyridin-6-yl]methyl}amino)ethanol], the IC50 (as a rule, the midpoint of a concentration-inhibition curve) is 10 to 100 nM. As to `Cc1c(-c2ccccc2)cccc1-c1cc2ccc(CN3CCCC[C@H]3C(=O)O)nc2o1` [Example 2, (2S)-1-{[2-(2-methylbiphenyl-3-yl)furo[2,3-b]pyridin-6-yl]methyl}piperidine-2-carboxylic Acid], the IC50 was in the range of 100 to 1000 nM. Consider `Cc1c(-c2ccccc2)cccc1-c1cc2nc(CNCCO)cc(C)c2o1` [Example 3, 2-({[7-methyl-2-(2-methylbiphenyl-3-yl)furo[3,2-b]pyridin-5-yl]methyl}amino)ethanol], for which the 50% inhibitory concentration (IC50) was 10 to 100 nM. For the compound `Cc1c(-c2ccccc2)cccc1-c1cc2nc(CN3CCCC[C@H]3C(=O)O)cc(C)c2o1` [Example 4, (2S)-1-{[7-methyl-2-(2-methylbiphenyl-3-yl)furo[3,2-b]pyridin-5-yl]methyl}piperidine-2-carboxylic Acid], the concentration for half-maximal inhibition (IC50) lay within 10 to 100 nM.

Take `Cc1c(-c2ccccc2)cccc1-c1cc2cc(CNCCO)nc(C)c2o1` [Example 5, 2-({[7-methyl-2-(2-methylbiphenyl-3-yl)furo[2,3-c]pyridin-5-yl]methyl}amino)ethanol]: the IC50 lay in the range of 10 to 100 nM. The same measure for `Cc1c(-c2ccccc2)cccc1-c1cc2cc(CN3CCCC[C@H]3C(=O)O)nc(C)c2o1` [Example 6, (2S)-1-{[7-methyl-2-(2-methylbiphenyl-3-yl)furo[2,3-c]pyridin-5-yl]methyl}piperidine-2-carboxylic Acid]: 10 to 100 nM; for `Cc1c(-c2ccccc2)cccc1-c1nc2cc(CN3CCCC[C@H]3C(=O)O)ccc2o1` [Example 7, (2S)-1-{[2-(2-methylbiphenyl-3-yl)-1,3-benzoxazol-5-yl]methyl}piperidine-2-carboxylic Acid]: 10 to 100 nM. For `Cc1c(-c2ccccc2)cccc1-c1nc2cc(CNCCO)ccc2o1` [Example 8, 2-({[2-(2-methylbiphenyl-3-yl)-1,3-benzoxazol-5-yl]methyl}amino)ethanol], the 50% inhibitory concentration (IC50) was at most 10 nM. Take `Cc1c(-c2ccccc2)cccc1-c1cc2cc(CN3CCCC[C@H]3C(=O)O)cnc2o1` [Example 9, (2S)-1-{[2-(2-methylbiphenyl-3-yl)furo[2,3-b]pyridin-5-yl]methyl}piperidine-2-carboxylic Acid]: the IC50 lay in the range of 100 to 1000 nM. The same measure for `Cc1c(-c2ccccc2)cccc1-c1cc2cc(CNCCO)cnc2o1` [Example 10, 2-({[2-(2-methylbiphenyl-3-yl)furo[2,3-b]pyridin-5-yl]methyl}amino)ethanol]: 10 to 100 nM; for `Cc1c(-c2ccccc2)cccc1-c1nc2cc(CN3CCCC[C@H]3C(=O)O)cc(C)c2o1` [Example 11, (2S)-1-{[7-methyl-2-(2-methylbiphenyl-3-yl)-1,3-benzoxazol-5-yl]methyl}piperidine-2-carboxylic Acid]: at most 10 nM; for `Cc1c(-c2ccccc2)cccc1-c1nc2cc(CNCCO)cc(C)c2o1` [Example 12, 2-({[7-methyl-2-(2-methylbiphenyl-3-yl)-1,3-benzoxazol-5-yl]methyl}amino)ethanol]: at most 10 nM. In the case of `Cc1cc(CN2CCCC[C@H]2C(=O)O)cc2nc(-c3cccc(-c4ccccc4)c3C#N)oc12` [Example 13, (2S)-1-{[2-(2-cyanobiphenyl-3-yl)-7-methyl-1,3-benzoxazol-5-yl]methyl}piperidine-2-carboxylic Acid], the IC50 lay within 10 to 100 nM. With `Cc1cc(CNCCO)cc2nc(-c3cccc(-c4ccccc4)c3C#N)oc12` [Example 14, 3-(5-{[(2-hydroxyethyl)amino]methyl}-7-methyl-1,3-benzoxazol-2-yl)biphenyl-2-carbonitrile], the IC50 was at most 10 nM. In the case of `Cc1c(-c2ccc3c(c2)OCCO3)cccc1-c1nc2cc(CN3CCCC[C@H]3C(=O)O)cc(C)c2o1` [Example 15, (2S)-1-({2-[3-(2,3-dihydro-1,4-benzodioxin-6-yl)-2-methylphenyl]-7-methyl-1,3-benzoxazol-5-yl}methyl)piperidine-2-carboxylic Acid], the IC50 is 10 to 100 nM.
